Among the data in paper PMC11440583 (2024) are ΔTm, binding and association constant values, retold here.

Experiment [1] relates to c-MYC Pu24T (c-MYC Pu24-T; c-MYC Pu24) (DNA, G4) TGAGGGTGGTGAGGGTGGGGAAGG
Put plainly: CD (or UV) thermal melting. The note with it: 5 mM KCl; 10 mM Tris pH 7.2; 8 μM compound, 2 μM DNA.

Experiment [2] relates to c-MYC Pu22 (DNA, G4) TGAGGGTGGGTAGGGTGGGTAA
Put plainly: 1H NMR titration. The note with it: K+; 0-1.5 equiv compound.

Experiment [3] deals with Cy5-HIF-1α (DNA, G4) GCGCGGGGAGGGGAGAGGGGGCGGGAGCGCG
Put plainly: microscale thermophoresis (ligand-induced fluorescence quenching). Particulars: 100 mM KCl; 50 mM Tris pH 7.2, 0.05% Tween 20; 50 nM G4. Background: MST reads how a fluorescent partner responds to local heating, with and without ligand.

The test system of experiment [4] is dsDNA (DNA, duplex) CAATCGGATCGAATTCGATCCGATTG
Put plainly: CD (or UV) thermal melting. Particulars: 5 mM KCl; 10 mM Tris pH 7.2; 8 μM compound, 2 μM DNA.

In experiment [5] the test system is TBA (DNA, G4) GGTTGGTGTGGTTGG
Put plainly: CD (or UV) thermal melting. Particulars: 5 mM KCl; 10 mM Tris pH 7.2; 8 μM compound, 2 μM DNA.

Experiment [6] has as its system Tel22 (Tel22-Na+ antiparallel; Tel22-K+ hybrid) (DNA, G4) AGGGTTAGGGTTAGGGTTAGGG
Put plainly: CD (or UV) thermal melting. Particulars: 10 mM Tris pH 7.2, 8 μM compound, 2 μM DNA.

The test system is the same in experiment [7]. Put plainly: 1H NMR titration. Particulars: up to 2.0 equiv compound.
Experiment [8] has as its system c-MYC Pu22 (DNA, G4) TGAGGGTGGGTAGGGTGGGTAA
Put plainly: CD (or UV) thermal melting. The note with it: 5 mM KCl; 10 mM Tris pH 7.2; 8 μM compound, 2 μM DNA.

The test system of experiment [9] is VEGF (DNA, G4) GGGAGGGTTGGGGTGGG
Put plainly: CD (or UV) thermal melting. Particulars: 5 mM KCl; 10 mM Tris pH 7.2; 8 μM compound, 2 μM DNA.

Experiment [10] relates to Bom17 (DNA, G4) GGTTAGGTTAGGTTAGG
Put plainly: CD (or UV) thermal melting. Particulars: 15 mM KCl; 10 mM Tris pH 7.2; 8 μM compound, 2 μM DNA.

Experiment [11] concerns F-Tel22-Na+-T (DNA, G4) AGGGTTAGGGTTAGGGTTAGGG
Put plainly: FRET melting with dsDNA competitor. Particulars: 40 mM NaCl; 10 mM sodium cacodylate pH 7.2; 2 μM compound, 0.2 μM G4; 0-20 μM dsDNA.

One may read the ΔTm as the change in melting temperature against a reference sample.

As to `NCCNCCNC(=O)c1cc(F)c(/N=N/c2c(F)cc(-c3ccncc3)cc2F)c(F)c1`, the ΔTm in experiment [1] is 4.2 °C; in experiment [4] it was 1.0 °C; in [5], 6.3 °C; in experiment [6] (5 mM KCl) it was 9.9 °C; in [6] (15 mM NaCl), 5.8 °C; in experiment [8], 19.2 °C. For the same molecule, the ΔTm in experiment [9] amounted to 14.7 °C; in [10] it was 8.8 °C. For the same molecule, the binding result in experiment [2], in experiment [7] and in experiment [11] was “yes” throughout. Also, the association constant in [3] was 2.8 × 10^5 M^–1.
